88 compounds from a melting point compilation (Tetko et al.; mined from patent text by program, amines drawn as free bases though some values may be those of a salt) can be followed below.

Each structure is given as a SMILES string.

As usually defined, the melting point is the temperature of the solid-liquid transition.

Take `Cc1cccc(-c2csc(N3CCN(C(=O)Nc4onc(C)c4C)CC3)n2)c1`: the melting point fell in the range of 175 to 176 °C. Then `O=C(O)Cn1c(=O)c(=O)n(O)c2ccc(Cl)cc21`, with 280 to 282 °C; and `CCCCCCCCCC(=O)Nc1ccc(S(=O)(=O)Nc2nnc(CC(=O)OCC)s2)cc1`, with 89 to 90 °C; and `O=C(NC1CCC2(CC1)CSC1=C(O2)c2ccccc2C(=O)C1=O)Oc1cccc(C(F)(F)F)c1` (stereo not drawn), with 198 to 199 °C.

Compound `COC(=O)c1snc(-c2cc(OC)c(Cl)cc2F)c1N` came in with a melting point of 121 to 124 °C. As for `CC(C)N(C(=O)c1ccc(N)cc1)C(C)C`, the figure is 170 °C; as for `c1ccc(CNCC2CCn3c(nc4ccccc43)S2)cc1` (stereo not drawn), 155 to 156 °C. As for `O=C(Nc1cccnn1)N1CCN(c2nccc(-c3cccc(F)c3)n2)CC1`, the melting point was in the range of 238 to 239 °C. Then `CCOC(=O)N1CCC2(CC1)C(=O)OC(=O)N2c1ccccc1`, with 211 °C; and `C=C1N(c2ccccc2)C(=O)OC12CCN(C(=O)N1CCN(C)CC1)CC2`, with 139 to 140 °C. Then `O=C(CNC(=O)c1nc2ccc(Oc3cccc(C(F)(F)F)c3)cc2cc1OCc1ccccc1)OCc1ccccc1`, with 103 to 105 °C; and `COc1ccc(Br)c(-n2c(=O)[nH]c(=O)n(C)c2=O)c1`, with 185 to 187 °C; and `CN(C)CCN(Cc1ccccc1)C1=NC(=O)C(=Cc2cccc(-c3cc(F)c(O)c(C45CC6CC(CC(C6)C4)C5)c3)c2)S1`, with 242 to 246 °C.

`CN(C)CCNc1c(-c2ccccc2)c(=O)[nH]c2cc(Cl)ccc12` showed a melting point of 230 °C. As for `CCCc1c(OCCCOc2ccc(C(=O)CCCCC(=O)O)cc2F)ccc(C(C)=O)c1O`, the figure is 106 to 107 °C. As for `CCOc1ncnc(C(F)(F)F)c1CS(=O)(=O)C1=NOC(C)(CCl)C1` (stereo not drawn), the figure is 76 to 78 °C; as for `COc1ncccc1-c1ccc(OC2SCC(OC(C)=O)C(OC(C)=O)C2OC(C)=O)c(Cl)n1` (stereo not drawn), 221 °C; as for `O=C(O)C(Cc1nnn[nH]1)NC(=O)C(CS)C(F)(F)F` (stereo not drawn), 158 to 161 °C. Then `COC(=O)c1c(-c2ccccc2C)c2cc(C)c(C)cc2[nH]c1=O`, with 288 to 289 °C; and `CC(C)(C)OC(=O)N1c2ccccc2CC1c1ccccc1N` (stereo not drawn), with 114 to 117 °C. On to `Cc1nnc2n1-c1ccc(I)cc1C(c1ccccc1F)=NC2`, for which the melting point was in the range of 235 to 238 °C. As for `COc1ccc2c(c1)COCc1cc(OC)c(OC)c(OC)c1-2`, the figure is 151 to 153 °C; as for `CCCOc1ccc(NC2=C(C(=O)OCC)CCC2)cc1C1=NC(=O)C2=NN=NC2=N1`, 164 to 165 °C. Then `Clc1ccc(CC[C@H]2CN(Cc3ccccc3)CCN2Cc2ccccc2)cc1`, with 87 to 90 °C; and `CCN1CCCC1CNC(=O)c1cc(S(N)(=O)=O)cc2c1OC(C)C2` (stereo not drawn), with 164 to 165 °C; and `Cc1nc2ccccc2n1-c1ccc(C(=O)N(C)C2CCNCC2)cc1`, with 219 to 221 °C. As to `CCOC(=O)C(Cc1ccc(CC(F)(F)C(F)(F)F)cc1)C(=O)c1cccc(Cl)c1` (stereo not drawn), the melting point lay within 81 to 82 °C. As for `CCOC(=O)Cc1ccc(CC2(CNS(=O)(=O)c3ccc(Cl)cc3)CCCC2)cc1`, the melting point was in the range of 117 to 119 °C. Then `O=C(C1=Cc2ccccc2C1)C12CC3CC(CC(C3)C1)C2`, with 124 to 125 °C; and `CCOC(=O)C(=O)Nc1c([N+](=O)[O-])cc(Br)c2ccccc12`, with 190 to 191 °C; and `c1cc2cc3cnccc3cc2cn1`, with 174 °C.

For the compound `COc1cc2c(cc1OCc1ccccc1)CCCC(C(=O)N1CCN(C(=O)c3cc(OC)c(OC)c(OC)c3)CC1)=C2`, the melting point lay in the range of 140 to 142 °C. `O=C(c1ccccc1)c1ccc(Nc2ccccc2NC(=O)C(F)(F)F)cc1` yielded a melting point of 187 to 191 °C. Consider `CC(=O)SCCNc1nc(-c2ccccc2)c2cc(Cl)ccc2n1`, for which the melting point stood at 129 °C.

The compound `O=Cc1ccc(-c2ccc(-c3ccc(C=O)o3)nc2)cc1` yielded a melting point of 217 to 219 °C.

In the case of `Clc1cccc(Oc2ncccc2C2=NC(c3ccccc3)CO2)c1` (stereo not drawn), the melting point is 78 to 80 °C. In the case of `O=C1CCCN(C(=O)c2ccc([N+](=O)[O-])cc2Cl)c2ccsc21`, the melting point was 180 to 185 °C. Take `c1ccc2c(c1)c1[nH]cnc1c1nnnn21`: the melting point was greater than 300 °C. Then `O=C1N[C@H](C(=O)NCCO[N+](=O)[O-])[C@@H](c2ccccc2)O1`, with 122 to 124 °C; and `COC(=O)c1ccc([N+](=O)[O-])cc1C`, with 73.6 °C.

`COc1ccc2c(c1)Cc1ccccc1C(=O)C2` gave a melting point of 105 to 106 °C.

The compound `O=C(O)C1=Cc2cccc(Cl)c2OC1C(F)(F)F` (stereo not drawn) showed a melting point of 224 to 226 °C. Compound `O=C(Nc1ccccc1Sc1ccccc1-c1nnn[nH]1)c1ccc(OCCCCc2ccccc2)cc1` yielded a melting point of 156 to 159 °C. As for `CCC(c1ccc(C(=O)OC)cc1)C(C)NCC(O)c1ccc(O)c(CO)c1` (stereo not drawn), the figure is 73 to 75 °C; as for `Cc1ccc(CCc2ccccc2)c(OCC[C@@H]2C[C@@H](O)CN2C)c1`, 97 to 100 °C; as for `COC(=O)c1c(C2=NC(C)(C(C)C)C(=O)N2)cccc1[N+](=O)[O-]` (stereo not drawn), 159 to 162 °C. Then `COC(=O)c1ccc(S(C)(=O)=O)c(COc2ccnn2C)c1Cl`, with 70 °C; and `COCOc1c(C)cc(-c2ccc(C(=O)NCCOc3ccc(CC(Oc4ccccc4)C(=O)O)cc3)cc2)cc1C` (stereo not drawn), with 142 to 143 °C. Then `Cc1nnc(-c2ccc3occ(-c4ccncc4Cl)c3c2)o1`, with 147 to 148 °C.

On to `CCOC(=O)c1c(C)ccnc1Sc1nc(C)c(CC(=O)O)s1`, for which the melting point was 164 to 166 °C. In the case of `Nc1ccc(F)c(-c2ccncc2)n1`, the melting point lay in the range of 189 to 190 °C. As for `COc1ccc(C(=O)CC(=O)c2ccc(O)cc2O)cc1OC`, the melting point lay in the range of 263 to 265 °C. The compound `Cc1ccc(-c2c(NS(=O)(=O)c3ccc(C(C)(C)C)cc3)ncnc2OCCOc2ncc(SC(C)C)cn2)cc1` had a melting point of 162 °C. As for `O=c1oc(OCc2ccccc2)nc2ccccc12`, the figure is 152 to 154 °C. As for `C=C(C)OC(=O)c1ccc(C(=O)OC(=C)C)cc1`, the figure is 72 to 73.5 °C; as for `O=C(Nc1ccccc1)N1C(=O)C2(CCCCC2)N(O)C12CCCCC2`, 125 to 128 °C.

In turn, `COC(=O)c1cccc(-c2nc(COc3ccc(C=O)cc3)c(C)o2)c1` had a melting point of 103 to 104 °C. With `O=C(NCCSCc1ccccc1)c1c(Cl)cccc1Cl`, the melting point was in the range of 96 to 97 °C.

For the compound `CC(=O)Nc1ccc(-c2cc3cccc(C(=O)OCCN4CCCCC4)c3o2)cc1`, the melting point fell in the range of 155 to 157 °C. For the compound `COc1ccccc1CN1CCC(=O)C(C(c2ccccc2)c2ccc(F)cc2)C1` (stereo not drawn), the melting point fell in the range of 115 to 116 °C. For `CC(C)(C)OC(=O)N1CCc2snc(O)c2C1`, the melting point was 174 to 177 °C.

Take `N#CN(c1ccccc1)S(=O)(=O)c1ccccc1`: the melting point lay within 65 to 66 °C. For `CC(C)S(=O)(=O)c1nc(OS(C)(=O)=O)cs1`, the melting point lay in the range of 56.5 to 58.5 °C. Then `CC(=O)N1CCC(=O)C(C2c3ccccc3CCc3ccccc32)C1` (stereo not drawn), with 107 to 109 °C.

For the compound `CC(=O)Nc1ccc(O[C@@H]2CNC[C@H]2O)cc1` (relative stereo), the melting point turned out to be 200 °C.

For the compound `CCC(C)(C)c1ccc(OCCCC(=O)Nc2ccc(Cl)c(NC(=O)CC(=O)C(C)(C)Sc3ccccc3)c2)c(C(C)(C)CC)c1`, the melting point was in the range of 144 to 145 °C.

As for `CC(CC(=O)OC(C)C)N=c1sc2ccccc2s1` (stereo not drawn), the melting point worked out at 44 °C. Then `O=C1Nc2ccc(C(F)(F)F)cc2C1(O)c1cc(Cl)ccc1O` (stereo not drawn), with 156 to 158 °C.

With `COc1c(C(C)(C)C)cc(C(C)=O)c(O)c1Br`, the melting point lay in the range of 69 to 71 °C. Consider `O=C1c2ccccc2C(=O)c2c1ccc(C(=O)O)c2[N+](=O)[O-]`, for which the melting point lay in the range of 284 to 286 °C. Compound `CN1CCC[C@@H]1Cc1c(-c2ccccc2)[nH]c2ccccc12` returned a melting point of 132 °C. For `CN(c1ccc(CCNCC(O)COc2ccc(OCc3ccccc3)cc2)cc1)C1SC(=O)NC1=O` (stereo not drawn), the melting point fell in the range of 51 to 53 °C.

Take `COc1cccc(C23CCCC=C2C(=O)N(C)C(=O)C3)c1` (stereo not drawn): the melting point fell in the range of 139 to 141 °C.

`O=C(NCc1ccccc1)c1ccc(-c2ccc3nnn(Cc4ccc5ncccc5c4)c3n2)cc1F` returned a melting point of 163 to 165 °C. For the compound `CCOC(=O)c1ccc(OCc2nc(-c3ccccc3)oc2C)c(OC)c1`, the melting point lay in the range of 103 to 104 °C. As for `CCC(CC)OC(=O)c1ccc(C(=O)NS(=O)(=O)c2ccc(C(=O)NCCc3ccccc3)cc2)cn1`, the melting point lay within 234 to 235 °C. For the compound `O=C(O)c1cc(Br)cc2c1NCCC2C(=O)O` (stereo not drawn), the melting point was in the range of 238 to 239 °C. For `CC(=O)c1ccc2c(c1)OCC(C(=O)O)O2` (stereo not drawn), the melting point fell in the range of 159 to 162 °C. With `Cc1cc(C#N)c(C)c(C(=O)Nc2ccn(C)n2)n1`, the melting point was 180 °C. As for `C[C@H](C(=O)O)n1ncn(-c2ccc(OCC(F)(F)C(F)F)cc2)c1=O`, the figure is 162 to 165 °C; as for `COc1cc2cc(-c3c(F)cccc3F)sc2c(Cl)c1Cl`, 173 to 174 °C; as for `CN1CCC(=C2c3ccsc3C(O)Cn3ccnc32)CC1` (stereo not drawn), 230 °C. Then `O=C1NCC(CCl)C1(c1ccccc1)c1ccccc1` (stereo not drawn), with 218 to 219 °C; and `CC(=O)N1CCc2c(c3ccc(-n4ccc(OCc5ccccc5)cc4=O)cc3n2C)C1`, with 225 to 230 °C. Consider `CC(=O)NC[C@H]1CN(c2ccc(N3C[C@H]4CN(C(=O)OCc5ccccc5)C[C@H]4C3)cc2)C(=O)O1`, for which the melting point was 135 to 140 °C. Then `c1csc(-c2ccc3cc(-c4cccs4)ccc3c2)c1`, with 256 to 258 °C. As for `Cn1nc(COc2ccc(C=O)cc2)c2ccccc2c1=O`, the figure is 168 to 170 °C; as for `O=C1CSCC(=O)NCCNCCN1`, 206 to 208 °C.
